Experiments:
human tumor cell lines = format: cell-based; settings: for cytotoxicity against tumor cells (in words): cancer cell line panel
M14 = experiment: in vitro melanoma cell growth inhibition (NCI screen)
M19-MEL = experiment: as above
SK-MEL-2 = experiment: as above
SK-MEL-28 = experiment: as above
UACC-62 = experiment: as above
CCRF-CEM = experiment: in vitro leukemia cell growth inhibition (NCI screen)
HL-60(TB) = experiment: as above
K-562 = experiment: as above
MOLT-4 = experiment: as above
RPMI-8226 = experiment: as above
SR = experiment: as above
SF-539 = experiment: in vitro CNS cancer cell growth inhibition (NCI screen)
SNB-75 = experiment: as above
U 251 = experiment: as above
HCT-116 = experiment: in vitro colon cancer cell growth inhibition (NCI screen)
KM 12 = experiment: as above
IGROV1 = experiment: in vitro ovarian cancer cell growth inhibition (NCI screen)
OVCAR-4 = experiment: as above; settings: OVACR-4
HOP-18 = experiment: in vitro non-small cell lung cancer cell growth inhibition (NCI screen)
NCI-H23 = experiment: as above
NCI-H460 = experiment: as above
NCI-H522 = experiment: as above
LXFL 529 = experiment: as above
MALME-3M = experiment: in vitro melanoma cell growth inhibition (NCI screen)
UACC-257 = experiment: as above
SF-268 = experiment: in vitro CNS cancer cell growth inhibition (NCI screen)
SF-295 = experiment: as above
SNB-19 = experiment: as above
DLD-1 = experiment: in vitro colon cancer cell growth inhibition (NCI screen)
HCT-15 = experiment: as above
786-0 = experiment: in vitro renal cancer cell growth inhibition (NCI screen)
RXF-393 = experiment: as above
OVCAR-3 = experiment: in vitro ovarian cancer cell growth inhibition (NCI screen)
HOP-62 = experiment: in vitro non-small cell lung cancer cell growth inhibition (NCI screen)
HOP-92 = experiment: as above
TK-10 = experiment: in vitro renal cancer cell growth inhibition (NCI screen)
OVCAR-8 = experiment: in vitro ovarian cancer cell growth inhibition (NCI screen)
LOX1MVI = experiment: in vitro melanoma cell growth inhibition (NCI screen)
SK-MEL-5 = experiment: as above
COLO-205 = experiment: in vitro colon cancer cell growth inhibition (NCI screen)
SW 620 = experiment: as above
ACHN = experiment: in vitro renal cancer cell growth inhibition (NCI screen)
RXF-631 = experiment: as above
UO-31 = experiment: as above
MCF-7 = experiment: in vitro breast cancer cell growth inhibition (NCI screen)
MDA-MB-435 = experiment: as above
MDA-N = experiment: as above
OVCAR-5 = experiment: in vitro ovarian cancer cell growth inhibition (NCI screen)

O=C(Cc1ccccc1F)NC1=C(Cl)C(=O)c2ccccc2C1=O [Compound 2i, 2-(2-Fluorophenyl)acetamido-3-chloro-1,4-naphthoguinone]
GI50 (human tumor cell lines; Homo sapiens, cancer cell panel, general / most cell lines, read-out: logGI50 values in the cancer cell line panel (converted)): 25.1 to 2510 nM
cytotoxicity log GI50 (M14): -6.29 M
cytotoxicity log GI50 (M19-MEL): -6.36 M
cytotoxicity log GI50 (SK-MEL-2): -6.21 M
cytotoxicity log GI50 (SK-MEL-28): -6.34 M
cytotoxicity log GI50 (UACC-62): -6.48 M
cytotoxicity log GI50 (CCRF-CEM): -6.54 M
cytotoxicity log GI50 (HL-60(TB)): -6.55 M
cytotoxicity log GI50 (K-562): -6.53 M
cytotoxicity log GI50 (MOLT-4): -6.60 M
cytotoxicity log GI50 (RPMI-8226): -6.44 M
cytotoxicity log GI50 (SR): -6.32 M
cytotoxicity log GI50 (SF-539): -6.62 M
cytotoxicity log GI50 (SNB-75): -6.33 M
cytotoxicity log GI50 (U 251): -6.48 M
cytotoxicity log GI50 (HCT-116): -6.37 M
cytotoxicity log GI50 (KM 12): -6.29 M
cytotoxicity log GI50 (IGROV1): -6.17 M
cytotoxicity log GI50 (OVCAR-4): -6.22 M
cytotoxicity log GI50 (HOP-18): -6.18 M
cytotoxicity log GI50 (NCI-H23): -6.25 M
cytotoxicity log GI50 (NCI-H460): -6.15 M
cytotoxicity log GI50 (NCI-H522): -6.67 M
cytotoxicity log GI50 (LXFL 529): -6.40 M

NC1=C(NC(=O)Cc2ccccc2F)C(=O)c2ccccc2C1=O [Compound 3b]
cytotoxicity against tumor cells (in words) (human tumor cell lines): inactive against all representative cancer cell lines
cytotoxicity log GI50 (MALME-3M): -4.87 M
cytotoxicity log GI50 (M19-MEL): -5.35 M
cytotoxicity log GI50 (SK-MEL-2): -4.84 M
cytotoxicity log GI50 (UACC-257): -4.53 M
cytotoxicity log GI50 (UACC-62): -4.42 M
cytotoxicity log GI50 (SF-268): -4.46 M
cytotoxicity log GI50 (SF-295): -4.49 M
cytotoxicity log GI50 (SF-539): -4.57 M
cytotoxicity log GI50 (SNB-19): -4.45 M
cytotoxicity log GI50 (SNB-75): -4.73 M
cytotoxicity log GI50 (U 251): -4.44 M
cytotoxicity log GI50 (DLD-1): -4.78 M
cytotoxicity log GI50 (HCT-15): -4.62 M
cytotoxicity log GI50 (786-0): -4.57 M
cytotoxicity log GI50 (RXF-393): -4.46 M
cytotoxicity log GI50 (OVCAR-3): -5.08 M
cytotoxicity log GI50 (HOP-62): -4.59 M
cytotoxicity log GI50 (HOP-92): -4.65 M
cytotoxicity log GI50 (NCI-H522): -4.67 M

NC1=C(NC(=O)Cc2ccc(F)cc2)C(=O)c2ccccc2C1=O [Compound 3c]
cytotoxicity against tumor cells (in words) (human tumor cell lines): inactive against all representative cancer cell lines
cytotoxicity log GI50 (M19-MEL): -5.16 M
cytotoxicity log GI50 (CCRF-CEM): -4.55 M
cytotoxicity log GI50 (HL-60(TB)): -4.59 M
cytotoxicity log GI50 (SF-268): -4.54 M
cytotoxicity log GI50 (SNB-19): -4.63 M
cytotoxicity log GI50 (SNB-75): -4.49 M
cytotoxicity log GI50 (U 251): -5.09 M
cytotoxicity log GI50 (DLD-1): -4.95 M
cytotoxicity log GI50 (RXF-393): -4.68 M
cytotoxicity log GI50 (TK-10): -4.57 M
cytotoxicity log GI50 (IGROV1): -4.71 M
cytotoxicity log GI50 (OVCAR-3): -4.88 M
cytotoxicity log GI50 (OVCAR-8): -4.47 M
cytotoxicity log GI50 (HOP-62): -4.56 M
cytotoxicity log GI50 (HOP-92): -4.48 M
cytotoxicity log GI50 (NCI-H23): -4.87 M
cytotoxicity log GI50 (NCI-H522): -4.79 M

COc1ccc(CNC2=C(NC(C)=O)C(=O)c3ccccc3C2=O)cc1 [Compound 41]
cytotoxicity log GI50 (LOX1MVI): -5.07 M
cytotoxicity log GI50 (MALME-3M): -5.08 M
cytotoxicity log GI50 (M19-MEL): -5.02 M
cytotoxicity log GI50 (SK-MEL-2): -5.04 M
cytotoxicity log GI50 (SK-MEL-5): -5.13 M
cytotoxicity log GI50 (UACC-257): -5.06 M
cytotoxicity log GI50 (UACC-62): -5.11 M
cytotoxicity log GI50 (CCRF-CEM): -5.06 M
cytotoxicity log GI50 (HL-60(TB)): -5.77 M
cytotoxicity log GI50 (K-562): -5.11 M
cytotoxicity log GI50 (MOLT-4): -5.43 M
cytotoxicity log GI50 (SF-539): -5.13 M
cytotoxicity log GI50 (COLO-205): -5.03 M
cytotoxicity log GI50 (DLD-1): -5.07 M
cytotoxicity log GI50 (HCT-116): -5.29 M
cytotoxicity log GI50 (SW 620): -5.09 M
cytotoxicity log GI50 (ACHN): -5.68 M
cytotoxicity log GI50 (RXF-631): -5.19 M
cytotoxicity log GI50 (UO-31): -5.02 M
cytotoxicity log GI50 (OVCAR-3): -5.09 M
cytotoxicity log GI50 (OVCAR-4): -5.09 M
cytotoxicity log GI50 (HOP-92): -5.18 M
cytotoxicity log GI50 (NCI-H23): -5.17 M
cytotoxicity log GI50 (NCI-H522): -5.86 M

COC(=O)CCC(=O)NC1=C(Nc2ccccc2)C(=O)c2ccccc2C1=O [Compound 54]
cytotoxicity log GI50 (MALME-3M): -5.76 M
cytotoxicity log GI50 (M14): -5.71 M
cytotoxicity log GI50 (SK-MEL-2): -5.41 M
cytotoxicity log GI50 (SK-MEL-28): -5.59 M
cytotoxicity log GI50 (UACC-257): -5.56 M
cytotoxicity log GI50 (UACC-62): -5.75 M
cytotoxicity log GI50 (HL-60(TB)): -5.46 M
cytotoxicity log GI50 (SF-539): -5.11 M
cytotoxicity log GI50 (OVCAR-3): -5.52 M
cytotoxicity log GI50 (MCF-7): -5.75 M
cytotoxicity log GI50 (MDA-MB-435): -5.67 M
cytotoxicity log GI50 (MDA-N): -5.69 M
cytotoxicity log GI50 (OVCAR-5): -5.41 M

Reference: US5789431A, “Naphthoquinone antitumor compound and method” (The University of North Carolina at Chapel Hill, priority 1996, dated 1998)
